Test results from article PMC6886798, “Expression of myeloid Src-family kinases is associated with poor prognosis in AML and influences Flt3-ITD kinase inhibitor acquired resistance” (PLoS ONE, 2019).

Legend:
Assay in all cases: KINOMEscan
Assay type in all cases: binding
Settings in all cases: 1.0 µM
YANK3 = biological target: T1, YANK3 (Homo sapiens, UniProt Q86UX6)
T1 construct: purchased Eurofins/DiscoverX (KINOMEscan scanMAX service)
Protocol: (§1) Kinase retention to the immobilized ligand is then measured using quantitative real-time PCR for each kinase-specific DNA barcode.

[1] = biological target: T2, RSK1(Kin.Dom.2-C-terminal) (Homo sapiens, UniProt Q15418)
T2 construct: RSK1(Kin.Dom.2-C-terminal); purchased Eurofins/DiscoverX KINOMEscan scanMAX
Protocol: as §1

AAK1 = biological target: T3, AAK1 (Homo sapiens, UniProt Q2M2I8)
T3 construct: purchased Eurofins/DiscoverX KINOMEscan scanMAX
T3 sequence (Q2M2I8 whole entry): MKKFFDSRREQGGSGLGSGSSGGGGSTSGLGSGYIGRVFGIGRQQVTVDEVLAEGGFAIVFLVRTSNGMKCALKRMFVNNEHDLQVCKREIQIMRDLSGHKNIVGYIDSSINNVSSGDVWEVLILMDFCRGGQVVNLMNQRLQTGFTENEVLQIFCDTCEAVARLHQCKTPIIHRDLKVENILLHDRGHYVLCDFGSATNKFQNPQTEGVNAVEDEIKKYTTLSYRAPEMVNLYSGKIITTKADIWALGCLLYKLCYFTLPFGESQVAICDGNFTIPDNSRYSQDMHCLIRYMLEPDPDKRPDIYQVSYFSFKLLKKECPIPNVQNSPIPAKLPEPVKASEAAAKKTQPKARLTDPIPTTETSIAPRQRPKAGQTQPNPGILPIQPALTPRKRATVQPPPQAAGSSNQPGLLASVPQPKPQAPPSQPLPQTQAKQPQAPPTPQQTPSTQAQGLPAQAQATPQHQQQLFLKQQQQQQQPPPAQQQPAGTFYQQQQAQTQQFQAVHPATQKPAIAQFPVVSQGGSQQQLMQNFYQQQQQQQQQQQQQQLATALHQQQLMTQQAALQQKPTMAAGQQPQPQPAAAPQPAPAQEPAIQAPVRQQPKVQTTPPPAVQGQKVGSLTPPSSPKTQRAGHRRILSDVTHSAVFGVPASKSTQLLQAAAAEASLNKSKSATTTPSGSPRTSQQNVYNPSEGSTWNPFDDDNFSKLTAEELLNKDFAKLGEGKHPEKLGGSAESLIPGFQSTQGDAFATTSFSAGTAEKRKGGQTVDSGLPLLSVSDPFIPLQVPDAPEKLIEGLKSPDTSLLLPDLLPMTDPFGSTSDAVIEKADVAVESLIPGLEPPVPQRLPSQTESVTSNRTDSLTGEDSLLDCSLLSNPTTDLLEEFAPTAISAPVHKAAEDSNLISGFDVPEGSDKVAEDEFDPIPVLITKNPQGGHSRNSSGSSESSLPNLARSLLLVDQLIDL
Protocol: as §1

MUSK = biological target: T4, MUSK (Homo sapiens, UniProt O15146)
T4 construct: purchased Eurofins/DiscoverX KINOMEscan scanMAX
Protocol: as §1

GAK = biological target: T5, GAK (Homo sapiens, UniProt O14976)
T5 construct: purchased Eurofins/DiscoverX KINOMEscan scanMAX
Protocol: as §1

CAMK1 = biological target: T6, CAMK1 (Homo sapiens, UniProt Q14012)
T6 construct: purchased Eurofins/DiscoverX KINOMEscan scanMAX
T6 sequence (Q14012 whole entry): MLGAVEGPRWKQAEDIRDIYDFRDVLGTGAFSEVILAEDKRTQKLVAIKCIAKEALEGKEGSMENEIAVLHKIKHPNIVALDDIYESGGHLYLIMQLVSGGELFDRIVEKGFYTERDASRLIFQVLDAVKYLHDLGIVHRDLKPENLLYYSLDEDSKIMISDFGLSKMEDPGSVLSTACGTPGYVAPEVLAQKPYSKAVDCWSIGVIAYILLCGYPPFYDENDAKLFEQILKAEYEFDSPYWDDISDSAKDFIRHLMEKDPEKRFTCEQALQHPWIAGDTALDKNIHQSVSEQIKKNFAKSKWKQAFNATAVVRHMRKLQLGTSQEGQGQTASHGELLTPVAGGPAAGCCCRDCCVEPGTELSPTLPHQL
Protocol: as §1

ERBB4 = biological target: T7, ERBB4 (Homo sapiens, UniProt Q15303)
T7 construct: purchased Eurofins/DiscoverX KINOMEscan scanMAX
Protocol: as §1

FAK = biological target: T8, FAK (Homo sapiens, UniProt Q05397)
T8 construct: purchased Eurofins/DiscoverX KINOMEscan scanMAX
Protocol: as §1

ROCK1 = biological target: T9, ROCK1 (Homo sapiens, UniProt Q13464)
T9 construct: purchased Eurofins/DiscoverX KINOMEscan scanMAX
Protocol: as §1

CDKL5 = biological target: T10, CDKL5 (Homo sapiens, UniProt O76039)
T10 construct: purchased Eurofins/DiscoverX KINOMEscan scanMAX
Protocol: as §1

RIOK1 = biological target: T11, RIOK1 (Homo sapiens, UniProt Q9BRS2)
T11 construct: purchased Eurofins/DiscoverX KINOMEscan scanMAX
T11 sequence (Q9BRS2 whole entry): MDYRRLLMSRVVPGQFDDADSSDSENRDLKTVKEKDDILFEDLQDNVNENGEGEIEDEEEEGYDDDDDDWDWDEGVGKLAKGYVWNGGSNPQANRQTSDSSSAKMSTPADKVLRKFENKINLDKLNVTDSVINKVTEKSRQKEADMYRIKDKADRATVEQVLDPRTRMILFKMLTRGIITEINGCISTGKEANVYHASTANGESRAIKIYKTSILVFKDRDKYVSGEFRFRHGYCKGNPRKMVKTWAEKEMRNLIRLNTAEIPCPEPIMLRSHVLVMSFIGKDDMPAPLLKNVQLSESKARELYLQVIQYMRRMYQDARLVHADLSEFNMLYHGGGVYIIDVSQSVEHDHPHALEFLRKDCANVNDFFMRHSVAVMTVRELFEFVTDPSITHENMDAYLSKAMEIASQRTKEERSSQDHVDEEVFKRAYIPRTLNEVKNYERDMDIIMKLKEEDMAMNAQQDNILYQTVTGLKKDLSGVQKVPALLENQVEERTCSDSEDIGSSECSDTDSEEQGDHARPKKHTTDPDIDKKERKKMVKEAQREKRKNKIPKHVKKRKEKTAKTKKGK
Protocol: as §1

PIK3CA(Q546K) = biological target: T12, PIK3CA(Q546K) (Homo sapiens, UniProt P42336, Q546K)
T12 construct: purchased Eurofins/DiscoverX KINOMEscan scanMAX
T12 sequence (P42336 whole entry Q546K): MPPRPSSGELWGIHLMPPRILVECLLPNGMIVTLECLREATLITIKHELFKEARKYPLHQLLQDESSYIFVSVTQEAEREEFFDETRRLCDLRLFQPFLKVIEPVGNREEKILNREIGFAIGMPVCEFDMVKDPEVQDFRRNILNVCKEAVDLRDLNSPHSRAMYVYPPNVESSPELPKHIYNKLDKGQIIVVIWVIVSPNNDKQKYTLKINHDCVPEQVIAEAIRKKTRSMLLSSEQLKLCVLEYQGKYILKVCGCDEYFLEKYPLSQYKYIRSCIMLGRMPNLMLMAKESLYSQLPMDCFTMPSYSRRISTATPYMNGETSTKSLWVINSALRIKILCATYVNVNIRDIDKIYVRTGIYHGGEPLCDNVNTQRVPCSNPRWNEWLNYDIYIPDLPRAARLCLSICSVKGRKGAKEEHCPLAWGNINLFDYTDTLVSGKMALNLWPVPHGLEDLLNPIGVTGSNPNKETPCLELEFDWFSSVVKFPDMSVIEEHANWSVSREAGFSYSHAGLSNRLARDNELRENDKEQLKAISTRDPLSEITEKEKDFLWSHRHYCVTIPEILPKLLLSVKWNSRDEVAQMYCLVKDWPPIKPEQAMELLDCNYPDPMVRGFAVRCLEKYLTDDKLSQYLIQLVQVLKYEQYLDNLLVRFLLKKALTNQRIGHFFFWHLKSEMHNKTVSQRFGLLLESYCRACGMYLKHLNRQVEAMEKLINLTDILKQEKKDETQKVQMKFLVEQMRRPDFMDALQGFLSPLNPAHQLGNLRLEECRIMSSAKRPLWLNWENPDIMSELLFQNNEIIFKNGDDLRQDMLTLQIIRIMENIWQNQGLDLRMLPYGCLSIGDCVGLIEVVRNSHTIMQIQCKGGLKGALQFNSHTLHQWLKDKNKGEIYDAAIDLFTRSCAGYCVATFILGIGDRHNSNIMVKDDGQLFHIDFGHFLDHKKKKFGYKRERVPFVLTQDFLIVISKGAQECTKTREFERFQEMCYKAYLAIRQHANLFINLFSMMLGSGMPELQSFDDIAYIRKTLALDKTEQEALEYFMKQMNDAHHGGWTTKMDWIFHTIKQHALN
Protocol: as §1

PIK3CA(E542K) = biological target: T13, PIK3CA(E542K) (Homo sapiens, UniProt P42336, E542K)
T13 construct: purchased Eurofins/DiscoverX KINOMEscan scanMAX
T13 sequence (P42336 whole entry E542K): as the sequence (P42336 whole entry Q546K) above, with E542K, K546Q counted along it
Protocol: as §1

SLK = biological target: T14, SLK (Homo sapiens, UniProt Q9H2G2)
T14 construct: purchased Eurofins/DiscoverX KINOMEscan scanMAX
Protocol: as §1

KIT = biological target: T15, KIT (Homo sapiens, UniProt P10721)
T15 construct: purchased Eurofins/DiscoverX KINOMEscan scanMAX
Protocol: as §1

[2] = biological target: T16, ABL1(H396P)-phosphorylated (Homo sapiens, UniProt P00519, H396P)
T16 construct: purchased Eurofins/DiscoverX KINOMEscan scanMAX
Protocol: as §1

[3] = biological target: T17, ABL1(Q252H)-phosphorylated (Homo sapiens, UniProt P00519, Q252H)
T17 construct: purchased Eurofins/DiscoverX KINOMEscan scanMAX
Protocol: as §1

MET(M1250T) = biological target: T18, MET(M1250T) (Homo sapiens, UniProt P08581, M1250T)
T18 construct: purchased Eurofins/DiscoverX KINOMEscan scanMAX
Protocol: as §1

CLK1 = biological target: T19, CLK1 (Homo sapiens, UniProt P49759)
T19 construct: purchased Eurofins/DiscoverX KINOMEscan scanMAX
Protocol: as §1

ZAP70 = biological target: T20, ZAP70 (Homo sapiens, UniProt P43403)
T20 construct: purchased Eurofins/DiscoverX (KINOMEscan scanMAX service)
Protocol: as §1

DCAMKL3 = biological target: T21, DCAMKL3 (Homo sapiens, UniProt Q9C098)
T21 construct: purchased Eurofins/DiscoverX KINOMEscan scanMAX
Protocol: as §1

MYO3A = biological target: T22, MYO3A (Homo sapiens, UniProt Q8NEV4)
T22 construct: purchased Eurofins/DiscoverX KINOMEscan scanMAX
Protocol: as §1

DYRK2 = biological target: T23, DYRK2 (Homo sapiens, UniProt Q92630)
T23 construct: purchased Eurofins/DiscoverX KINOMEscan scanMAX
Protocol: as §1

STK39 = biological target: T24, STK39 (Homo sapiens, UniProt Q9UEW8)
T24 construct: purchased Eurofins/DiscoverX KINOMEscan scanMAX
Protocol: as §1

ERN1 = biological target: T25, ERN1 (Homo sapiens, UniProt O75460)
T25 construct: purchased Eurofins/DiscoverX KINOMEscan scanMAX
Protocol: as §1

DMPK2 = biological target: T26, DMPK2 (Homo sapiens, UniProt Q6DT37)
T26 construct: purchased Eurofins/DiscoverX KINOMEscan scanMAX
T26 sequence (Q6DT37 whole entry): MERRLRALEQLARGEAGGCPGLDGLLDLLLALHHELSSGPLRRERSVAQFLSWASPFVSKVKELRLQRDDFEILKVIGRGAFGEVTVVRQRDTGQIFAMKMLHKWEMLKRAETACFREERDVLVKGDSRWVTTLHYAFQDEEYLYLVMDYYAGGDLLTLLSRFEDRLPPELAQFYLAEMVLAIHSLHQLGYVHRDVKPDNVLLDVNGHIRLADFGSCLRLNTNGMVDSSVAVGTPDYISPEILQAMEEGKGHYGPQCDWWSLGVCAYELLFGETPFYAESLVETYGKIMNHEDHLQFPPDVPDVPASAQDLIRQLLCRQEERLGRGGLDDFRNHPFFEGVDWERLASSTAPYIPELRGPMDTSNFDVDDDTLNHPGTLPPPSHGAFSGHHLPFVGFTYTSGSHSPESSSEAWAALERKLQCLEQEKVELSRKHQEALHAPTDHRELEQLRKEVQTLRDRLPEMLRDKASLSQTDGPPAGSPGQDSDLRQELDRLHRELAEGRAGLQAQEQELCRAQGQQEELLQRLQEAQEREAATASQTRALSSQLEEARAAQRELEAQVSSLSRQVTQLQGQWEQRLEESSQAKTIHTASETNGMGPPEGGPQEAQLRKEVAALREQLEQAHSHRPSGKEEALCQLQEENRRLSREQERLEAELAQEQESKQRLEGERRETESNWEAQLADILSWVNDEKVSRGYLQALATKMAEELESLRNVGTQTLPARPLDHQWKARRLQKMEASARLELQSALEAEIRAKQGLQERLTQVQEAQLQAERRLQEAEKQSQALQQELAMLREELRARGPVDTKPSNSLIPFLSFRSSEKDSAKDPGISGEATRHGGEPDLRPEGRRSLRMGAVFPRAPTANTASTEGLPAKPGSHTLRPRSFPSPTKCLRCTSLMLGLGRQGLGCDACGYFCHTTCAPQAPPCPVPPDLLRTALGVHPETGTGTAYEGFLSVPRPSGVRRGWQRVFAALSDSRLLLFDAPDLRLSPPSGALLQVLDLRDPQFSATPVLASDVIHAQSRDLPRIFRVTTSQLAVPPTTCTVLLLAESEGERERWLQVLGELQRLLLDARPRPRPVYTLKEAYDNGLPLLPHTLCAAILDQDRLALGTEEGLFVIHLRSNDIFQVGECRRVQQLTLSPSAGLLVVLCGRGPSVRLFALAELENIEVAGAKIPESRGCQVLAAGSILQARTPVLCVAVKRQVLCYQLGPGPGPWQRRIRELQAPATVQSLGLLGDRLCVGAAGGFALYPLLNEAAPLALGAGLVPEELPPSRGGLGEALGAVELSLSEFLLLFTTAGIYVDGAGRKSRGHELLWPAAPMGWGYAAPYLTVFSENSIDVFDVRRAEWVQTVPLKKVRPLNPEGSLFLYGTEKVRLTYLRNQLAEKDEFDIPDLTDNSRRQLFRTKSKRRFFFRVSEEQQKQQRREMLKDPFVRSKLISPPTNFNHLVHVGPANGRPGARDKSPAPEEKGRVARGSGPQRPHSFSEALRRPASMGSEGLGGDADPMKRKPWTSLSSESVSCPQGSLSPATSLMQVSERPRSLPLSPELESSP
Protocol: as §1

DRAK2 = biological target: T27, DRAK2 (Homo sapiens, UniProt O94768)
T27 construct: purchased Eurofins/DiscoverX KINOMEscan scanMAX
T27 sequence (O94768 whole entry): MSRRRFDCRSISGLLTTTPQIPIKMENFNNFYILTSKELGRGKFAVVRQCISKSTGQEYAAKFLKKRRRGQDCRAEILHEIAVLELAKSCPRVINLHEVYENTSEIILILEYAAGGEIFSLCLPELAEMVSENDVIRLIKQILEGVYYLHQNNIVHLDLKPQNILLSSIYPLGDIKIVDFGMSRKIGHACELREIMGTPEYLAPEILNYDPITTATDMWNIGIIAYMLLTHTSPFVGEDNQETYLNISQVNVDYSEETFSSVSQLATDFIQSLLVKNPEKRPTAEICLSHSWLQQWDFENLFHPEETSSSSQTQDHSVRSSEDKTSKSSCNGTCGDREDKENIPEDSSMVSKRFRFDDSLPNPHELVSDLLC
Protocol: as §1

PFTAIRE2 = biological target: T28, PFTAIRE2 (Homo sapiens, UniProt Q96Q40)
T28 construct: purchased Eurofins/DiscoverX KINOMEscan scanMAX
Protocol: as §1

[4] = biological target: T29, RPS6KA5(Kin.Dom.1-N-terminal) (Homo sapiens, UniProt O75582)
T29 construct: RPS6KA5(Kin.Dom.1-N-terminal); purchased Eurofins/DiscoverX KINOMEscan scanMAX
Protocol: as §1

PDGFRB = biological target: T30, PDGFRB (Homo sapiens, UniProt P09619)
T30 construct: purchased Eurofins/DiscoverX KINOMEscan scanMAX
Protocol: as §1

CSNK1A1L = biological target: T31, CSNK1A1L (Homo sapiens, UniProt Q8N752)
T31 construct: purchased Eurofins/DiscoverX KINOMEscan scanMAX
Protocol: as §1

DDR1 = biological target: T32, DDR1 (Homo sapiens, UniProt Q08345)
T32 construct: purchased Eurofins/DiscoverX KINOMEscan scanMAX
Protocol: as §1

MEK1 = biological target: T33, MEK1 (Homo sapiens, UniProt Q02750)
T33 construct: purchased Eurofins/DiscoverX KINOMEscan scanMAX
Protocol: as §1

HIPK2 = biological target: T34, HIPK2 (Homo sapiens, UniProt Q9H2X6)
T34 construct: purchased Eurofins/DiscoverX KINOMEscan scanMAX
Protocol: as §1

HASPIN = biological target: T35, HASPIN (Homo sapiens, UniProt Q8TF76)
T35 construct: purchased Eurofins/DiscoverX KINOMEscan scanMAX
Protocol: as §1

MLK2 = biological target: T36, MLK2 (Homo sapiens, UniProt Q02779)
T36 construct: purchased Eurofins/DiscoverX KINOMEscan scanMAX
Protocol: as §1

CAMK1G = biological target: T37, CAMK1G (Homo sapiens, UniProt Q96NX5)
T37 construct: purchased Eurofins/DiscoverX KINOMEscan scanMAX
Protocol: as §1

EIF2AK1 = biological target: T38, EIF2AK1 (Homo sapiens, UniProt Q9BQI3)
T38 construct: purchased Eurofins/DiscoverX KINOMEscan scanMAX
Protocol: as §1

PIK3CA(H1047L) = biological target: T39, PIK3CA(H1047L) (Homo sapiens, UniProt P42336, H1047L)
T39 construct: purchased Eurofins/DiscoverX KINOMEscan scanMAX
T39 sequence (P42336 whole entry H1047L): as the sequence (P42336 whole entry Q546K) above, with K546Q, H1047L counted along it
Protocol: as §1

FRK = biological target: T40, FRK (Homo sapiens, UniProt P42685)
T40 construct: purchased Eurofins/DiscoverX KINOMEscan scanMAX
Protocol: as §1

CSF1R-autoinhibited = biological target: T41, CSF1R-autoinhibited (Homo sapiens, UniProt P07333)
T41 construct: purchased Eurofins/DiscoverX KINOMEscan scanMAX
Protocol: as §1

Compound: CN1CCN(C2CCC(n3cc(-c4ccc(Oc5ccccc5)cc4)c4c(N)ncnc43)CC2)CC1 (centres unmarked) [A-419259]
- % Control (YANK3): 100%
- % Control [1]: 84%
- % Control (AAK1): 100%
- % Control (MUSK): 100%
- % Control (GAK): 69%
- % Control (CAMK1): 92%
- % Control (ERBB4): 0%
- % Control (FAK): 72%
- % Control (ROCK1): 90%
- % Control (CDKL5): 100%
- % Control (RIOK1): 77%
- % Control (PIK3CA(Q546K)): 100%
- % Control (PIK3CA(E542K)): 85%
- % Control (SLK): 100%
- % Control (KIT): 0.15%
- % Control [2]: 0.65%
- % Control [3]: 0.5%
- % Control (MET(M1250T)): 59%
- % Control (CLK1): 100%
- % Control (ZAP70): 100%
- % Control (DCAMKL3): 100%
- % Control (MYO3A): 2.7%
- % Control (DYRK2): 100%
- % Control (STK39): 100%
- % Control (ERN1): 82%
- % Control (DMPK2): 36%
- % Control (DRAK2): 93%
- % Control (PFTAIRE2): 89%
- % Control [4]: 77%
- % Control (PDGFRB): 0%
- % Control (CSNK1A1L): 64%
- % Control (DDR1): 65%
- % Control (MEK1): 0.1%
- % Control (HIPK2): 100%
- % Control (HASPIN): 70%
- % Control (MLK2): 29%
- % Control (CAMK1G): 100%
- % Control (EIF2AK1): 99%
- % Control (PIK3CA(H1047L)): 98%
- % Control (FRK): 5.3%
- % Control (CSF1R-autoinhibited): 57%
